What was measured:
human CD38 = target: T1, human CD38 (Homo sapiens, UniProt P28907); assay: human recombinant CD38 enzyme assay (hydrolysis of NAD+); assay type: biochemical; conditions: human recombinant CD38, 0.4 nM enzyme, 62.5 μM NAD+; read-out: hCD38 BioChem IC50
T1 sequence (P28907 1-300): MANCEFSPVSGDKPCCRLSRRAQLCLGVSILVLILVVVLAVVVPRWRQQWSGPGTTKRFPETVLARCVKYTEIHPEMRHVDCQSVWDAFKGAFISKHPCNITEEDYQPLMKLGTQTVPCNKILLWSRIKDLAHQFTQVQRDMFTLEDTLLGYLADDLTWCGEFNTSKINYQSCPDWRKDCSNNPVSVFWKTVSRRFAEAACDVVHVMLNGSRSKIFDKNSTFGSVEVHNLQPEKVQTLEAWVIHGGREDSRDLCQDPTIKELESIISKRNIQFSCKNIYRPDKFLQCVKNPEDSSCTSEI
How it was run: (§1)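 Residual NAD+ after 60 min of cell-free hydrolysis by recombinant mouse or human CD38 at ambient temperature, measured over a dose range. Detection used ADH conversion to NADH, then diaphorase-coupled resazurin-to-resorufin fluorescence (Ex/Em 540/590 nm).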

[1] = target: T2, endogenous CD38 in HL60 cells (Homo sapiens, UniProt P28907); assay: cellular CD38 assay in HL60 cells (cellular NAD levels); assay type: cell-based; conditions: all-trans retinoic acid, 24 hours, read-out: hCD38 HL60 ATRA NAD Cell Diaphorase IC50
T2 construct: endogenous in cells; host or cells: HL60 (leukemic cells, treated with all-trans retinoic acid)
T2 sequence (P28907 1-300): T1 sequence (P28907 1-300)
How it was run: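 Endogenous CD38 inhibition is inferred from NAD levels in HL60 cells after 24 h compound exposure at 20000 cells per well. A lytic cycling readout (0.2 U/mL diaphorase, 0.8 U/mL alcohol dehydrogenase, resazurin, FMN, ethanol, 0.2% Triton X-100, Tris/EDTA pH 8.4) ran 60 min at ambient temperature. Resorufin fluorescence was read at 540/590 nm.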

mouse CD38 = target: T3, mouse CD38 (Mus musculus, UniProt P56528); assay: mouse recombinant CD38 enzyme assay (hydrolysis of NAD+); assay type: biochemical; conditions: read-out: mCD38 BioChem IC50
T3 sequence (P56528 1-304): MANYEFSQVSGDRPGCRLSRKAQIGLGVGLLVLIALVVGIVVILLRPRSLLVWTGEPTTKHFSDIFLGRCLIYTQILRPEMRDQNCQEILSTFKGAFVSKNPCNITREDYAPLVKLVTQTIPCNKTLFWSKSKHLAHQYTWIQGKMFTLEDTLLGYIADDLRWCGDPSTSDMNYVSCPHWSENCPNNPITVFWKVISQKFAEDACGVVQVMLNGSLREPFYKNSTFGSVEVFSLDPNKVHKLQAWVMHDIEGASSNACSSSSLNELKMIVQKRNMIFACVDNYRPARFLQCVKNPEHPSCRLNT
How it was run: as §1

IC50 (human CD38)	IC50 [1]	IC50 (mouse CD38)	SMILES
37 nM	3020 nM	5 nM	CC(C)(O)[C@H]1CC[C@H](NC(=O)c2cccc(-n3ccnc3)n2)CC1 [Compound 134, N-((1r,4r)-4-(2-Hydroxypropan-2-yl)cyclohexyl)-6-(1H-imidazol-1-yl)picolinamide]
2 nM	187 nM	5 nM	O=C(Nc1ccc(C(F)F)nc1)c1ccnc(-n2ccnc2)n1 [Compound 93, N-(6-(difluoromethyl)pyridin-3-yl)-2-(1H-imidazol-1-yl)pyrimidine-4-carboxamide]
3 nM	273 nM	3 nM	Cc1cc(NC(=O)c2cccc(-n3ccnc3)n2)ccn1 [Compound 21, 6-(1H-imidazol-1-yl)-N-(2-methylpyridin-4-yl)picolinamide]
9 nM	365 nM	8 nM	Cc1ccc(NC(=O)c2cccc(-n3ccnc3)n2)cn1 [Compound 20, 6-(1H-imidazol-1-yl)-N-(6-methylpyridin-3-yl)picolinamide]
1.5 nM	254 nM	1 nM	COCCOc1cc(C(=O)Nc2ccc(C(F)F)nc2)nc(-c2cncn2C)n1 [Compound 307, N-(6-(difluoromethyl)pyridin-3-yl)-6-(2-methoxyethoxy)-2-(1-methyl-1H-imidazol-5-yl)pyrimidine-4-carboxamide]
104 nM	8540 nM	35 nM	COCCO[C@H]1CC[C@H](NC(=O)c2nccc(-c3cncn3C)n2)CC1 [Compound 209, N-((1r,4r)-4-(2-methoxyethoxy)cyclohexyl)-4-(1-methyl-1H-imidazol-5-yl)pyrimidine-2-carboxamide]
44 nM	4000 nM	11 nM	C[C@H]1CC[C@H](NC(=O)c2cc(C(F)(F)F)nc(-n3ccnc3)n2)CC1 [Compound 164, 2-(1H-imidazol-1-yl)-N-((1r,4r)-4-methylcyclohexyl)-6-(trifluoromethyl)pyrimidine-4-carboxamide]
12 nM	1110 nM	2 nM	CO[C@H]1CC[C@H](NC(=O)c2ccnc(-c3cncn3C)n2)CC1 [Compound 84, N-((1r,4r)-4-methoxycyclohexyl)-2-(1-methyl-1H-imidazol-5-yl)pyrimidine-4-carboxamide]
15 nM	1440 nM	25 nM	Cn1cncc1-c1cccc(C(=O)Nc2ccc(C(F)(F)F)nc2)n1 [Compound 71, 6-(1-methyl-1H-imidazol-5-yl)-N-(6-(trifluoromethyl)pyridin-3-yl)picolinamide]
15 nM	3730 nM	3 nM	CO[C@H]1CC[C@H](NC(=O)c2cc(C(C)C)nc(-c3cncn3C)n2)CC1 [Compound 171, 6-isopropyl-N-((1r,4r)-4-methoxycyclohexyl)-2-(1-methyl-1H-imidazol-5-yl)pyrimidine-4-carboxamide]
131 nM	3360 nM	32 nM	Cn1cncc1-c1cccc(C(=O)N[C@H]2CC[C@H](C(F)F)CC2)n1 [Compound 77, N-(4-(difluoromethyl)cyclohexyl)-6-(1-methyl-1H-imidazol-5-yl)picolinamide]
207 nM	5110 nM	58.7 nM	CC(C)(O)[C@H]1CC[C@H](NC(=O)c2nccc(-n3ccnc3)n2)CC1 [Compound 251, N-((1r,4r)-4-(2-hydroxypropan-2-yl)cyclohexyl)-4-(1H-imidazol-1-yl)pyrimidine-2-carboxamide]
2 nM	335 nM	2 nM	COc1cc(C(=O)Nc2ccc(C(F)F)nc2)nc(-n2ccnc2)n1 [Compound 127, N-(6-(difluoromethyl)pyridin-3-yl)-2-(1H-imidazol-1-yl)-6-methoxypyrimidine-4-carboxamide]
58.5 nM	2830 nM	36.2 nM	O=C(N[C@H]1CC[C@H](OC(F)F)CC1)c1nccc(-n2ccnc2)n1 [Compound 293, N-((1r,4r)-4-(difluoromethoxy)cyclohexyl)-4-(1H-imidazol-1-yl)pyrimidine-2-carboxamide]
199 nM	3950 nM	175 nM	O=C(N[C@H]1C[C@H](c2ccc(C(F)(F)F)nc2)C1)c1nccc(-n2ccnc2)n1 [Compound 269, 4-(1H-imidazol-1-yl)-N-((1r,3r)-3-(6-(trifluoromethyl)pyridin-3-yl)cyclobutyl)pyrimidine-2-carboxamide]
123 nM	8570 nM	8.8 nM	CO[C@H]1CC[C@H](NC(=O)c2nc(C3CC3)cc(-n3ccnc3)n2)CC1 [Compound 204, 4-cyclopropyl-6-(1H-imidazol-1-yl)-N-((1r,4r)-4-methoxycyclohexyl)pyrimidine-2-carboxamide]
189 nM	8280 nM	38 nM	COCCO[C@H]1CC[C@H](NC(=O)c2ccc(F)c(-n3ccnc3)n2)CC1 [Compound 54, 5-fluoro-6-(1H-imidazol-1-yl)-N-(4-(2-methoxyethoxy)cyclohexyl)picolinamide]
129 nM	5490 nM	38 nM	CO[C@H]1CC[C@H](NC(=O)c2cc(C(F)(F)F)nc(-n3ccnc3)n2)CC1 [Compound 111, 2-(1H-imidazol-1-yl)-N-((1r,4r)-4-methoxycyclohexyl)-6-(trifluoromethyl)pyrimidine-4-carboxamide]
6 nM	415 nM	6 nM	O=C(Nc1cccc(F)c1)c1cccc(-n2ccnc2)n1 [Compound 18, N-(3-fluorophenyl)-6-(1H-imidazol-1-yl)picolinamide]
210 nM	3570 nM	68 nM	Cc1cc(C(=O)Nc2cccnc2)nc(-c2cncs2)c1 [Compound 35, 4-methyl-N-(pyridin-3-yl)-6-(thiazol-5-yl)picolinamide]
47 nM	4860 nM	32 nM	CC(C)c1cc(C(=O)Nc2ccc(C(F)(F)F)nc2)nc(-n2ccnc2)n1 [Compound 170, 2-(1H-imidazol-1-yl)-6-isopropyl-N-(6-(trifluoromethyl)pyridin-3-yl)pyrimidine-4-carboxamide]
13.7 nM	1130 nM	43.9 nM	Cn1cncc1-c1ccnc(C(=O)N[C@H]2C[C@H](c3ccnc(C(F)(F)F)c3)C2)n1 [Compound 270, 4-(1-methyl-1H-imidazol-5-yl)-N-((1r,3r)-3-(2-(trifluoromethyl)pyridin-4-yl)cyclobutyl)pyrimidine-2-carboxamide]
16.7 nM	2050 nM	14.4 nM	Cn1cncc1-c1ccnc(C(=O)N[C@H]2C[C@H](c3cccc(F)c3)C2)n1 [Compound 241, N-((1r,3r)-3-(3-fluorophenyl)cyclobutyl)-4-(1-methyl-1H-imidazol-5-yl)pyrimidine-2-carboxamide]
2.4 nM	655 nM	0.7 nM	Cn1cncc1-c1nc(C(=O)Nc2ccc(OC(F)F)nc2)cc(C2CCOCC2)n1 [Compound 282, N-(6-(difluoromethoxy)pyridin-3-yl)-2-(1-methyl-1H-imidazol-5-yl)-6-(tetrahydro-2H-pyran-4-yl)pyrimidine-4-carboxamide]
46.1 nM	2280 nM	15.6 nM	Cn1cncc1-c1ccnc(C(=O)N[C@H]2CC[C@H](CO)CC2)n1 [Compound 259, N-((1r,4r)-4-(hydroxymethyl)cyclohexyl)-4-(1-methyl-1H-imidazol-5-yl)pyrimidine-2-carboxamide]
121 nM	7230 nM	48 nM	COCCO[C@H]1CC[C@H](NC(=O)c2cc(C(F)(F)F)nc(-n3ccnc3)n2)CC1 [Compound 157, 2-(1H-imidazol-1-yl)-N-((1r,4r)-4-(2-methoxyethoxy)cyclohexyl)-6-(trifluoromethyl)pyrimidine-4-carboxamide]
389 nM	8550 nM	110 nM	Cc1cc(C(F)(F)F)ncc1NC(=O)c1cccc(-n2ccnc2)n1 [Compound 29, 6-(1H-imidazol-1-yl)-N-(4-methyl-6-(trifluoromethyl)pyridin-3-yl)picolinamide]
108 nM	2550 nM	20 nM	O=C(Nc1ccc(C(F)F)nc1)c1cc(C2CC2)nc(-c2cncs2)n1 [Compound 110, 6-cyclopropyl-N-(6-(difluoromethyl)pyridin-3-yl)-2-(thiazol-5-yl)pyrimidine-4-carboxamide]

Source: patent publication US20230116972A1, “CD38 MODULATORS AND METHODS OF USE THEREOF” (Cytokinetics, Inc., priority 2021, published 2023)
